In patent publication US20240391881A1, “PHARMACEUTICAL USE AND PREPARATION METHOD FOR SUBSTITUTED HETEROARYL PHTHALAZINE DERIVATIVE” (ORIGIANT PHARMACEUTICAL CO., LTD., priority 2021, published 2024) one finds EC50 data, which are given here for 43 compounds.

In general, EC50 refers to the concentration that produces a half-maximal response. Low readings indicate greater potency, high ones weaker potency.

T1 sequence (Q96P20 whole entry): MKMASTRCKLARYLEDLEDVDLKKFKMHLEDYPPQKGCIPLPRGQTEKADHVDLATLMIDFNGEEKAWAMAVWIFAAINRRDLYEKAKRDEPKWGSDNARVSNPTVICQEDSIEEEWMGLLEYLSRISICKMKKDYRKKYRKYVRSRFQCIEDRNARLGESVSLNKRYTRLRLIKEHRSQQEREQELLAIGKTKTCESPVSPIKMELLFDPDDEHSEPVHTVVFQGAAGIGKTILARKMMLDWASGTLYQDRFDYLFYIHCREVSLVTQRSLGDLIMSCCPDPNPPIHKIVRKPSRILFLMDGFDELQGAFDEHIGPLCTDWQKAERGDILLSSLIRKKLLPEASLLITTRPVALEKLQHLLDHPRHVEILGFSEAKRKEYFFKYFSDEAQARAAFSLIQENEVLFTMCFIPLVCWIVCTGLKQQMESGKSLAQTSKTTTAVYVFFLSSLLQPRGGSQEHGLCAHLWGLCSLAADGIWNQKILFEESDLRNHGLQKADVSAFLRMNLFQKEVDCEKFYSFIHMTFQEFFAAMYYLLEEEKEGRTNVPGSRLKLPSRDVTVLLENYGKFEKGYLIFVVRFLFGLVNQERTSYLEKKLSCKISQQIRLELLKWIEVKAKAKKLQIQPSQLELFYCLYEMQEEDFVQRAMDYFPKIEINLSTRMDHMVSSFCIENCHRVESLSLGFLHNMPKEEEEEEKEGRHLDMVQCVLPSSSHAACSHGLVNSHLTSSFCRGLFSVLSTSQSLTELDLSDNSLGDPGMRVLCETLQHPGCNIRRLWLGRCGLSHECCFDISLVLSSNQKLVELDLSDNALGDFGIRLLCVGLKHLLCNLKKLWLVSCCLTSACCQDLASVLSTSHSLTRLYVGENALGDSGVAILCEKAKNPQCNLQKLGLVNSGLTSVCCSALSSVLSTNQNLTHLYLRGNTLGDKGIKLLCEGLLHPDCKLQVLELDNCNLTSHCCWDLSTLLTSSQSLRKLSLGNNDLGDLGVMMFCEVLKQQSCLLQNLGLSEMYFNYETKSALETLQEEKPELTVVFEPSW

The assay concerns the target T1, NLRP3 inflammasomes (Homo sapiens, UniProt Q96P20).
T1 construct: endogenous in cells; host or cells: THP-1 human monocytic cells, PMA-differentiated, LPS-primed, nigericin-stimulated
Kind of assay: THP-1 pyroptosis test (cell pyroptosis test). The format is cell-based. As to conditions: THP-1 cells differentiated with PMA, LPS stimulation, 10 μM nigericin, drug 0.001-10 μM, MTT absorbance 562 nm. The protocol: In vitro activity screening was performed on small molecule compounds targeting inhibition on NLRP3 inflammasomes using THP-1 human monocytic cells (THP-1). THP-1 can be induced to differentiate into macrophages by phorbol ester (PMA), and the macrophages M1 can be induced to polarize by lipopolysaccharide (LPS) to release cytokines such as TNF-α, and IL-6, so as to establish a typical inflammatory model.
THP-1 cells in a logarithmic growth phase were collected to prepare a 1×10^6 cells/mL cell suspension, PMA was added to achieve a final concentration of 300 ng/mL in the cell suspension, then 1×10^5 cells were inoculated to each well of a 96-well plate, and the cells were cultured in a 37° C., 5% CO2 cell incubator for 24 hours and induced to differentiate into macrophages.
The next day, LPS was added to stimulate and induce the cells to produce an inflammatory model. […] In the 200 μL system of the 96-well plate, the final concentration of each drug was 0.001-10 μM, and the final concentration of the nigericin was 10 μM.
Cell apoptosis protection rate=[(X−C0)/(C−C0)]×100%
wherein, C, C0 and X represent average absorbance values of the normal cell group, the blank control group, and the drug treatment group, respectively. Finally, cell survival curves were fitted by Graphpad Prism 5.0 software and EC50 values of the compounds to be tested in inhibiting pyroptosis caused by NLRP3 inflammasomes were calculated.
As for `CN1CCC[C@@H](Nc2nnc(-c3cc(F)ccc3O)c3ccccc23)C1` [Compound 46, (R)-4-fluoro-2-(4-((1-methylpiperidin-3-yl)amino)phthalazin-1-yl)phenol], the EC50 lay in the range of 20 to 100 nM.

Consider `Cc1ccc(O)c(-c2nnc(N[C@@H]3CCCN(C)C3)c3ccccc23)c1` [Compound 47, (R)-4-methyl-2-(4-((1-methylpiperidin-3-yl)amino)phthalazin-1-yl)phenol], for which the concentration for a half-maximal effect (EC50) was > 1000 nM. As to `Cc1cnc2c(N[C@@H]3CCCN(C)C3)nnc(-c3ccc(C(F)(F)F)cc3O)c2c1` [Compound 48, 2-(3-methyl-8-{[(3R)-1-methylpiperidin-3-yl]amino}pyridino[2,3-d]pyridazin-5-yl)-5-(trifluoromethyl)phenol], the half-maximal effective concentration (EC50) is < 20 nM.

In the case of `Cc1cnc2c(-c3ccc(C(F)(F)F)cc3O)nnc(N[C@@H]3CCCN(C)C3)c2c1` [Compound 49, 2-(3-methyl-5-{[(3R)-1-methylpiperidin-3-yl]amino}pyridino[2,3-d]pyridazin-8-yl)-5-(trifluoromethyl)phenol], the EC50 is < 20 nM. As for `CCc1cnc2c(N[C@@H]3CCCN(C)C3)nnc(-c3ccc(C(F)(F)F)cc3O)c2c1` [Compound 50, (R)-2-(3-ethyl-8-((1-methylpiperidin-3-yl)amino)pyridino[2,3-d]pyridazin-5-yl)-5-(trifluoromethyl)phenol], the figure is < 20 nM; as for `CCc1cnc2c(-c3ccc(C(F)(F)F)cc3O)nnc(N[C@@H]3CCCN(C)C3)c2c1` [Compound 51, (R)-2-(3-ethyl-5-((1-methylpiperidin-3-yl)amino)pyridino[2,3-d]pyridazin-8-yl)-5-(trifluoromethyl)phenol], 20 to 100 nM. Regarding `Cc1ccc2c(-c3ccc(C(F)(F)F)cc3O)nnc(N[C@@H]3CCCN(C)C3)c2n1` [Compound 52, (R)-2-(2-methyl-8-((1-methylpiperidin-3-yl)amino)pyridino[2,3-d]pyridazin-5-yl)-5-(trifluoromethyl)phenol], the EC50 is < 20 nM. In turn, `Cc1ccc2c(N[C@@H]3CCCN(C)C3)nnc(-c3ccc(C(F)(F)F)cc3O)c2n1` [Compound 53, (R)-2-(2-methyl-5-((1-methylpiperidin-3-yl)amino)pyridino[2,3-d]pyridazin-8-yl)-5-(trifluoromethyl)phenol] registered a concentration giving a half-maximal response (EC50) of 100 to 500 nM. As for `CN1CCC[C@@H](Nc2nnc(-c3ccc(C(F)(F)F)cc3O)c3cscc23)C1` [Compound 54, (R)-2-(4-((1-methylpiperidin-3-yl)amino)thieno[3,4-d]pyridazin-1-yl)-5-(trifluoromethyl)phenol], the EC50 was < 20 nM. As for `Cc1cnc2c(N[C@@H]3CCCN(C)C3)nnc(-c3ccc(F)cc3O)c2c1` [Compound 55, (R)-5-fluoro-2-(3-methyl-8-((1-methylpiperidin-3-yl)amino)pyridino[2,3-d]pyridazn-5-yl)phenol], the EC50 is < 20 nM.

Turning to `Cc1cnc2c(N[C@@H]3CCCN(C)C3)nnc(-c3ccccc3O)c2c1` [Compound 56, (R)-2-(3-methyl-8-((1-methylpiperidin-3-yl)amino)pyridino[2,3-d]pyridazin-5-yl)phenol], the EC50 was < 20 nM. For `Cc1nc2c(N[C@@H]3CCCN(C)C3)nnc(-c3ccc(C(F)(F)F)cc3O)c2n1C` [Compound 57], the 50% effective concentration (EC50) is < 20 nM. Turning to `CN1CCC[C@@H](Nc2nnc(-c3ccc(C(F)(F)F)cc3O)c3c2nc(C(F)(F)F)n3C)C1` [Compound 58], the EC50 was < 20 nM.

Consider `CN1CCC[C@@H](Nc2nnc(-c3ccc(C(F)(F)F)cc3O)c3c2nc(C2CC2)n3C)C1` [Compound 59], for which the 50% effective concentration (EC50) was < 20 nM. Under `Cc1ccc(-c2nnc(N[C@@H]3CCCN(C)C3)c3ncc(C)cc23)c(O)c1` [Compound 60, 5-methyl-2-(3-methyl-8-{[(3R)-1-methylpiperidin-3-yl]amino}pyridino[2,3-d]pyridazin-5-yl)phenol] stands < 20 nM. Under `Cc1cnc2c(N[C@@H]3CCCN(C)C3)nnc(-c3ccc(OC(F)(F)F)cc3O)c2c1` [Compound 61, 2-(3-methyl-8-{[(3R)-1-methylpiperidin-3-yl]amino}pyridino[2,3-d]pyridazin-5-yl)-5-(trifluoromethoxy)phenol] stands < 20 nM; under `CN1CCC[C@@H](Nc2nnc(-c3ccc(C(F)(F)F)cc3O)c3cnn(C)c23)C1` [Compound 62, (R)-2-(1-methyl-7-((1-methylpiperidin-3-yl)amino)-1H-pyrazolo[3,4-d]pyridazin-4-yl)-5-(trifluoromethyl)phenol], < 20 nM; under `CN1CCC[C@@H](Nc2nnc(-c3ccc(C(F)(F)F)cc3O)c3c2cnn3C)C1` [Compound 63, (R)-2-(1-methyl-4-((1-methylpiperidin-3-yl)amino)-1H-pyrazolo[3,4-d]pyridazin-7-yl)-5-(trifluoromethyl)phenol], < 20 nM.

Regarding `Cc1ccc(-c2nnc(N[C@@H]3CCCN(C)C3)c3c2cnn3C)c(O)c1` [Compound 64], the half-maximal effective concentration (EC50) was < 20 nM. With `Cc1ccc(-c2nnc(N[C@@H]3CCCN(C)C3)c3cnn(C)c23)c(O)c1` [Compound 65], the concentration giving a half-maximal response (EC50) was < 20 nM. `CN1C[C@H](Nc2nnc(-c3ccc(C(F)(F)F)cc3O)c3c2cnn3C)CCC1=O` [Compound 66] came in with an EC50 of 100 to 500 nM. For `CN1CC(Nc2nnc(-c3ccc(C(F)(F)F)cc3O)c3cnn(C)c23)CCC1=O` (stereo not shown) [Compound 67], the EC50 is 100 to 500 nM.

The compound `CN1CCC(Nc2nnc(-c3ccc(C(F)(F)F)cc3O)c3c2cnn3C)CC1` [Compound 68] showed a half-maximal effective concentration (EC50) of 500 to 1000 nM. On to `CN1CCC(Nc2nnc(-c3ccc(F)cc3O)c3cnn(C)c23)CC1` [Compound 69], for which the EC50 was > 1000 nM. Take `CN1CCC(Nc2nnc(-c3ccc(F)cc3O)c3c2cnn3C)CC1` [Compound 70]: the EC50 is > 1000 nM. As for `CCN1CC[C@@H](CNc2nnc(-c3ccc(C(F)(F)F)cc3O)c3c2cnn3C)C1` [Compound 71], the figure is > 1000 nM; as for `CN1CC[C@@H](Nc2nnc(-c3ccc(C(F)(F)F)cc3O)c3c2cnn3C)C1` [Compound 72], 20 to 100 nM. Regarding `Cn1ncc2c(NCCN3CCOCC3)nnc(-c3ccc(C(F)(F)F)cc3O)c21` [Compound 73], the EC50 lay in the range of 500 to 1000 nM. For `Cc1ccc(-c2nnc(NCCN3CCOCC3)c3c2cnn3C)c(O)c1` [Compound 74], the half-maximal effective concentration (EC50) was > 1000 nM. Compound `CN1CCC(CNc2nnc(-c3ccc(C(F)(F)F)cc3O)c3c2cnn3C)CC1` [Compound 75] returned an EC50 of 100 to 500 nM.

As to `Cn1cnc2c(NCCN3CCOCC3)nnc(-c3ccc(C(F)(F)F)cc3O)c21` [Compound 76], the EC50 was > 1000 nM. Under `Cn1cnc2c(-c3ccc(C(F)(F)F)cc3O)nnc(NCCN3CCOCC3)c21` [Compound 77] stands > 1000 nM; under `Cn1cnc2c(N[C@H]3CCc4ncccc43)nnc(-c3ccc(C(F)(F)F)cc3O)c21` [Compound 78], > 1000 nM; under `Cn1cnc2c(N[C@H]3CCCc4ncccc43)nnc(-c3ccc(C(F)(F)F)cc3O)c21` [Compound 79], > 1000 nM.

For the compound `Cn1cnc2c(-c3ccc(C(F)(F)F)cc3O)nnc(NCC3CCOCC3)c21` [Compound 80], the EC50 is > 1000 nM.

As to `CN1CC(Nc2nnc(-c3ccc(C(F)(F)F)cc3O)c3ncn(C)c23)CCC1=O` (stereo not shown) [Compound 81], the 50% effective concentration (EC50) is > 1000 nM. As for `Cn1cnc2c(NCCN3CCOCC3)nnc(-c3ccc(F)cc3O)c21` [Compound 82], the concentration for a half-maximal effect (EC50) was > 1000 nM.

`CN1CCC[C@@H](Nc2nnc(-c3sccc3O)c3c2ncn3C)C1` [Compound 83]: the EC50 was > 1000 nM. For the compound `Cn1cnc2c(O[C@@H]3CCCN(CC(F)(F)F)C3)nnc(-c3ccc(C(F)(F)F)cc3O)c21` [Compound 84], the EC50 is > 1000 nM.

As to `CN1CC[C@@H](Oc2nnc(-c3ccc(C(F)(F)F)cc3O)c3c2ncn3C)C1` [Compound 85], the EC50 is > 1000 nM. As for `CN1CCC[C@@H](Oc2nnc(-c3ccc(C(F)(F)F)cc3O)c3c2ncn3C)C1` [Compound 86], the figure is > 1000 nM. As for `CC(C)N1CCC[C@@H](Nc2nnc(-c3ccc(C(F)(F)F)cc3O)c3c2cnn3C)C1` [Compound 87], the figure is < 20 nM; as for `CN1CCC[C@@H](Nc2nnc(-c3ccc(C(F)(F)F)cc3C(F)F)c3c2cnn3C)C1` [Compound 88], 20 to 100 nM.
